From ChEMBL document CHEMBL1124742 (J Med Chem, 1990)

Columns and labels:
CHO-AA8 [1] = test: (§1) Tested for the in vitro cytotoxicity against transformed chinese hamster fibroblast line AA8; type: functional, cell-based; conditions: Cricetulus griseus
[2] = Evaluated for the mustard reactivity by determining rate constant for hydrolysis of mustard in aqueous acetone (K H); type: ADME; conditions: buffer
[3] = Evaluated for the mustard reactivity by determining rate constant for alkylation of 4-(4-nitrobenzyl)pyridine using NBP alkylation assay; type: ADME
P388 [4] = test: In vitro cytotoxicity against P388 murine leukemia; type: functional, cell-based; conditions: Mus musculus
P388 [5] = test: In vivo percentage increase in lifespan of drug treated tumor-bearing mice at a dose of 45 mg/kg; type: functional; conditions: Mus musculus
P388 [6] = test: Optimal dose of drug administered as a single dose in 0.1 or 0.2 mL of 30% v/v ethanol/water on day one after ip inoculation of 10e6 P388 leukemia cells; type: functional, Mus musculus
UV4 [7] = test: Tested for the in vitro cytotoxicity against transformed chinese hamster fibroblast line UV4.; type: functional, cell-based; conditions: Cricetulus griseus
Cricetulus griseus = species: Cricetulus griseus; test: Hypersensitivity factor(HF) was determined from the ratio of IC50(AA8) / IC50(UV4); type: functional
CHO-AA8 [8] = test: In vitro cytotoxicity against transformed chinese hamster fibroblast line AA8; type: functional, cell-based; conditions: Cricetulus griseus
UV4 [9] = test: In vitro cytotoxicity against transformed chinese hamster fibroblast line UV4.; type: functional, cell-based; conditions: Cricetulus griseus
P388 [10] = test: In vivo percentage increase in lifespan of drug treated tumor-bearing mice at a dose of 13.3 mg/kg; type: functional; conditions: Mus musculus
P388 [11] = test: In vivo percentage increase in lifespan of drug treated tumor-bearing mice at a dose of 20 mg/kg; type: functional; conditions: Mus musculus
P388 [12] = test: Tested for the in vitro cytotoxicity against P388 murine leukemia; type: cell-based; conditions: Mus musculus
P388 [13] = test: In vivo percentage increase in lifespan of drug treated tumor-bearing mice at a dose of 225 mg/kg; type: functional; conditions: Mus musculus
CHO-AA8 [14] = test: as §1; type: cell-based; conditions: Cricetulus griseus

Structure (SMILES)	IC50 (CHO-AA8 [1])	K H [2]	K NBP [3]	IC50 (P388 [4])	ILS at 45 mg/kg (P388 [5])	OD (P388 [6])	IC50 (UV4 [7])	Ratio (Cricetulus griseus)	IC50 (CHO-AA8 [8])	IC50 (UV4 [9])	ILS at 13.3 mg/kg (P388 [10])	ILS at 20 mg/kg (P388 [11])	IC50 (P388 [12])	ILS at 225 mg/kg (P388 [13])	IC50 (CHO-AA8 [14])
O=S(=O)(CCCCCNc1c2ccccc2nc2ccccc12)c1ccc(N(CCCl)CCCl)cc1	570 nM	2800 s⁻¹	500 s⁻¹	640 nM	33%	45 mg/kg	570 nM	1							
CCN(CC)CCCC(C)Nc1c2ccc(Cl)cc2nc2ccc(OC)cc12 (stereo not drawn) [QUINACRINE]								11.5	1700 nM	140 nM					
ClCCN(CCCl)c1ccc(CCCCCCNc2c3ccccc3nc3ccccc23)cc1		33900 s⁻¹	157000 s⁻¹	130 nM		13.3 mg/kg		36	530 nM	15 nM	22%				
ClCCN(CCCl)c1ccc(OCCCCCNc2c3ccccc3nc3ccccc23)cc1		100000 s⁻¹	115000 s⁻¹	40 nM		20 mg/kg		46	210 nM	5 nM		28%			
O=C(O)CCCc1ccc(N(CCCl)CCCl)cc1 [CHLORAMBUCIL]						225 mg/kg		58		600 nM			6750 nM	37%	26000 nM
O=C(NCCCCNc1c2ccccc2nc2ccccc12)c1ccc(N(CCCl)CCCl)cc1		25700 s⁻¹	171000 s⁻¹	510 nM		20 mg/kg		5.5	3700 nM	673 nM					
O=C(CCCCCNc1c2ccccc2nc2ccccc12)c1ccc(N(CCCl)CCCl)cc1		1100 s⁻¹	1800 s⁻¹	330 nM		65 mg/kg		5.9	3510 nM	593 nM					
ClCCN(CCCl)c1ccc(SCCCCCNc2c3ccccc3nc3ccccc23)cc1		5900 s⁻¹	16900 s⁻¹	360 nM	23%	45 mg/kg		19	710 nM	37 nM					
O=C(CCCCNc1c2ccccc2nc2ccccc12)Nc1ccc(N(CCCl)CCCl)cc1		2900 s⁻¹	2500 s⁻¹	3200 nM	58%	45 mg/kg		11.3	900 nM	80 nM					
